Entries after “also recorded” stand apart in the source; their conditions may differ. Non-standard residues stand in square brackets, D forms with d. Residues, ends and D or L forms follow the SMILES beside them. *: point of attachment. X1 = O=C(CCCC[C@@H]1SC[C@@H]2NC(=O)N[C@@H]21)NCCCOCCOCCOCCCN*; PEG12 = NCCOCCOCCOCCOCCOCCOCCOCCOCCOCCOCCOCCOCCC(=O)O

In one data set the test system is H1299 cells. The experiment in a line: Cell binding and internalization by flow cytometry, relative (normalized) uptake of peptide-streptavidin-phycoerythrin. In kind it is cell-based, human. Particulars: for Bmax (best-fit): Supplementary Table 2, normalized binding; for fold decrease in affinity: C-terminal truncation versus full-length monomer. The procedure: MGS4 was initially selected by phage display biopanning of a peptide library on live cells. […] As such, multivalent binding is often required. To ascertain whether multivalent binding is required for MGS4 internalization, monomeric (MGS4_V2) and tetrameric (MGS4_V1) peptides were synthesized and labeled as described (Supplementary Figure 1). After incubation of varying peptide concentrations on live cells, surface-bound peptide was removed by low pH washes, as well as trypsinization. Relative internalization was measured by flow cytometry to determine an EC50 value which represents the concentration of peptide producing half-maximal internalization. This measurement is dependent on the affinity of the peptide for its cellular target and the rate of internalization. This is a more accurate representation of the biological situation and useful in evaluating the peptides as drug delivery agents. As expected for receptor-mediated endocytosis, uptake of MGS4 is saturable with increasing concentration.
Fig. 1 Monomeric and tetrameric MGS4 have similar binding, internalization and subcellular location. a Binding and internalization of tetrameric MGS4_V1 and monomeric MGS4_V2 on live H1299 cells in culture. Cells were incubated with the peptide conjugated to streptavidin-phycoerythrin for 1 h at 37 °C. Non-internalized peptide was removed and the cells were analyzed by flow cytometry. b H1299 cells were incubated with MGS4_V1 or MGS4_V2 conjugated to streptavidin-Alexa Fluor 555 (red) for 1 h, washed, fixed and counterstained with WGA-Alexa Fluor 488 (green, cell membrane) and DAPI (blue, nuclei) and analyzed by fluorescence microscopy. The scale bar represents 20 µm. MGS4_V1 and MGS4_V2 internalize to a similar degree and localize to a similar destination. c Truncated monomeric MGS4 peptides have similar EC50 as the parental full-length peptide. Individual measurements are shown. The mean is shown as an “X” and black error bars represent standard error for a minimum of three experimental replicates (SEM). All original binding data and nonlinear regression analysis of the data are included in the supplementary materials.
Biotinylated peptide was conjugated to streptavidin-R-phycoerythrin or streptavidin-Alexa Fluor 647 (1:1 molar ratio) for 30 min. The open binding sites on streptavidin were quenched with RPMI 1640 and diluted to the indicated concentration. Tumor cells were grown to 90% confluency in a 12 well plate, then incubated with 500 µl peptide-dye conjugate at 37 °C. After 1 h, peptide was removed, and the cells were washed 3x with PBS (137 mM NaCl, 2.7 mM KCl, 10 mM Na2HPO4, 1.8 mM KH2PO4, pH 7.4), 2x with 0.1 M HCl-glycine pH2.2 in 0.9% NaCl, and 1x PBS rinse. Cells were removed by trypsinization. Flow cytometry was performed on a BD FACSCelesta, and data were analyzed on Flowing software. Cells were gated based on the forward and side scatter to include only viable cells and a minimum of 10,000 events were counted. A region containing <5% of the cells in the negative control was established, and relative peptide uptake by the mean fluorescence intensity of that population. For absolute peptide uptake per cell, a standard curve was generated using Quantum™ Alexa Fluor 647 microspheres (Bangs Laboratory, Fishers, IN). A representative linear regression showing the correlation of molecule equivalents soluble fluorophores (MESF) vs the mean fluorescence intensity (MFI) is shown in Supplemental Figure 6. Cells were gated based on the forward and side scatter to include only viable cells and a minimum of 10,000 events were counted. MFI was determined at 50% at peak height. Molecules internalized per cell were determined by the standard curve relating MESF to MFI and divided by the number dye molecules/MGS conjugate. An example is shown in supplemental Figure 7. GraphPad Prism® was used for non-linear regression curve fitting to calculate an EC50. […]
A general note: Flow cytometry measures light scatter and fluorescence of single cells or particles in a stream.

Another data set can be described thus: 100% human serum. Particulars: 37 °C, up to 48 h.
The nature of the next data set: Stability in human serum. It is filed as in vitro ADME. The settings on record: 100% human serum, 48 h, 37 °C, serum proteins precipitated, analytical HPLC, MALDI TOF/TOF MS. The protocol:
To address if acetylation is effective in reducing serum degradation of MGS4, acetylated (MGS4_V8) and non-acetylated (MGS4_V4) peptides were dissolved in human serum and incubated for 48 h at 37 °C. The peptides were monitored by analytical HPLC, and products were verified via MALDI TOF/TOF™ MS. […] Instead, a mixture of peptide fragments is detected, none of which correspond to the mass of the starting peptide (Supplemental Table 1 and Supplemental Fig. 2). The major products are shorter fragments corresponding to the loss of the five N-terminal amino acids. Fragments related to QSFYT-PEG11, SFYT-PEG11 and FYT-PEG11 are observed.
Supplemental Figure 1. […]
M GS4_V4 (non-acetylated, panel a) and M GS4_V8 (acetylated, panel b ) were incubated in 100% human serum for 0 and 48-hours. Serum proteins were precipitated, and the peptide was analyzed by analytical
HPLC. The mass of the peptide and degradation products were determined by MALDI MS and are […]
MGS4_V8, MGS4_V9, or MGS4_V10 were conjugated with streptavidin-Alexa Fluor 650 and were incubated with the indicated cell line for 1 hour. Non-internalized peptide was rem ov ed, and the mean number of peptides internalized per cell was determined to calculate the EC50. […]
Supplemental Figure 4 : Peptide-Streptavidin conjugates are nontoxic to cells. a. […] After 72 hours, viability was measured. […]

Where [1] appears, read: H1299 cells, 1 h at 37 °C, normalized uptake, one-site specific binding fit, Average ± SEM, minimum 3 replicates.

As for `CC(C)[C@H](NC(=O)[C@H](C)NC(=O)[C@H](Cc1c[nH]cn1)NC(=O)[C@@H](N)Cc1ccccc1)C(=O)N1CCC[C@H]1C(=O)N[C@@H](CCC(N)=O)C(=O)N[C@@H](CO)C(=O)N[C@@H](Cc1ccccc1)C(=O)N[C@@H](Cc1ccc(O)cc1)C(=O)N[C@H](C(=O)N[C@@H](C)C(=O)N1CCC[C@H]1C(=O)NCCOCCOCCOCCOCCOCCOCCOCCOCCOCCOCCOCCOCCC(=O)N[C@@H](CCC(=O)NCCCOCCOCCOCCCNC(=O)CCCC[C@@H]1SC[C@@H]2NC(=O)N[C@@H]21)C(N)=O)[C@@H](C)O` [MGS4_V2] (H-FHAVPQSFYTAP[PEG12]E(X1)-NH2), the “Bmax (best-fit)” value in the data set with H1299 cells was 1.065. Consider AcFHAVPQSFYT-PEG11, for which the not cleaved result in “100% human serum” was “only full-length peptide observed after 48 h; 93.4% of peak at 48 Hours (93.5% in starting material)”. For the molecule `CC(C)[C@H](NC(=O)[C@H](C)NC(=O)[C@H](Cc1c[nH]cn1)NC(=O)[C@@H](N)Cc1ccccc1)C(=O)N1CCC[C@H]1C(=O)N[C@@H](CCC(N)=O)C(=O)N[C@@H](CO)C(=O)N[C@@H](Cc1ccccc1)C(=O)N[C@@H](Cc1ccc(O)cc1)C(=O)N[C@H](C(=O)N[C@@H](C)C(=O)NCCOCCOCCOCCOCCOCCOCCOCCOCCOCCOCCOCCOCCC(=O)N[C@@H](CCC(=O)NCCCOCCOCCOCCCNC(=O)CCCC[C@@H]1SC[C@@H]2NC(=O)N[C@@H]21)C(N)=O)[C@@H](C)O` [MGS4_V3] (H-FHAVPQSFYTA[PEG12]E(X1)-NH2), in the data set with H1299 cells, the “fold decrease in affinity” value is listed as 3-5 fold and the “Bmax (best-fit)” value was 1.247.

In the case of FHAVPQSFYT-PEG11, in “100% human serum”, the cleaved bond entry is recorded as “P-Q, major, 48 Hours” and the fragment found result is listed as “SFYT-PEG11, 48 Hours; also recorded: FYT-PEG11, 48 Hours”.

With “FHAVPQSFYTAP [MGS4_V1, tetrameric full-length MGS4 peptide]”, the midpoint of the response in the data set on H1299 cells (setting [1]), the EC50, lay at 3.6 ± 0.49 nM. For the same molecule, the “Bmax (best-fit)” value in the data set on H1299 cells was 1.171. For “FHAVPQSFY*** [MGS4_V5, monomeric MGS4 truncated by three C-terminal amino acids]”, in the data set on H1299 cells (setting [1]), the “EC50 (nM)” value was “Not Detected^2”. On to `CC(C)[C@H](NC(=O)[C@H](C)NC(=O)[C@H](Cc1c[nH]cn1)NC(=O)[C@@H](N)Cc1ccccc1)C(=O)N1CCC[C@H]1C(=O)N[C@@H](CCC(N)=O)C(=O)N[C@@H](CO)C(=O)N[C@@H](Cc1ccccc1)C(=O)N[C@@H](Cc1ccc(O)cc1)C(=O)N[C@H](C(=O)NCCOCCOCCOCCOCCOCCOCCOCCOCCOCCOCCOCCOCCC(=O)N[C@@H](CCC(=O)NCCCOCCOCCOCCCNC(=O)CCCC[C@@H]1SC[C@@H]2NC(=O)N[C@@H]21)C(N)=O)[C@@H](C)O` [MGS4_V4] (H-FHAVPQSFYT[PEG12]E(X1)-NH2), for which, in the data set with H1299 cells, the “fold decrease in affinity” value is recorded as 3-5 fold and the “Bmax (best-fit)” value was found to be 1.402. For the same molecule, in “Stability in human serum”, the “peptide after incubation in human serum” value was “none of the starting material”. Consider `CC(=O)N[C@@H](Cc1ccccc1)C(=O)N[C@@H](Cc1c[nH]cn1)C(=O)N[C@@H](C)C(=O)N[C@H](C(=O)N1CCC[C@H]1C(=O)N[C@@H](CCC(N)=O)C(=O)N[C@@H](CO)C(=O)N[C@@H](Cc1ccccc1)C(=O)N[C@@H](Cc1ccc(O)cc1)C(=O)N[C@H](C(=O)N[C@@H](C)C(=O)N1CCC[C@H]1C(=O)NCCOCCOCCOCCOCCOCCOCCOCCOCCOCCOCCOCCOCCC(=O)N[C@@H](CCC(=O)NCCCOCCOCCOCCCNC(=O)CCCC[C@@H]1SC[C@@H]2NC(=O)N[C@@H]21)C(N)=O)[C@@H](C)O)C(C)C` [MGS4_V7] (Ac-FHAVPQSFYTAP[PEG12]E(X1)-NH2), for which the “Bmax (best-fit)” value in the data set with H1299 cells came to 1.470.

The values are drawn from article PMC9845330 (Communications Biology, 2023).
